# Experimental data reported in paper PMC4826290 (Journal of molecular biology, 2016).
# Biological target: T1, Pif1^238–780 (Saccharomyces cerevisiae, UniProt P07271)
# T1 sequence (P07271 238-780): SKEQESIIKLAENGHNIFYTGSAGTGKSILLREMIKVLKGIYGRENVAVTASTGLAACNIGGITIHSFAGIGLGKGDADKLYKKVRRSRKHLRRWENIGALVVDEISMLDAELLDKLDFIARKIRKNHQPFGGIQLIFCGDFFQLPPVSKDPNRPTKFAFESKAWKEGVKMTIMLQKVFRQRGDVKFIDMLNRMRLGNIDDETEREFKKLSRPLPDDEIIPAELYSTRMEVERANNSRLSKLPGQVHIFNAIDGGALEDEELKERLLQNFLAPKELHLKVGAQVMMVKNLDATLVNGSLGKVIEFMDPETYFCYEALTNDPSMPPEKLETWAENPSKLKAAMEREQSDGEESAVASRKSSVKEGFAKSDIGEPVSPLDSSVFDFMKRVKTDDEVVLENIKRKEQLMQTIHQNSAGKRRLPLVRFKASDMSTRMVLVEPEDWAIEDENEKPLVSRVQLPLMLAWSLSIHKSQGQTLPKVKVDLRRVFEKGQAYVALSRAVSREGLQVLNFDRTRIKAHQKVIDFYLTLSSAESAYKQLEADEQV
# Assay: ssDNA-dependent ATPase
# Format: biochemical
smiles,measurement,value
Nc1ncnc2c1ncn2[C@@H]1O[C@H](COP(=O)(O)OP(=O)(O)OP(=O)(O)O)[C@@H](O)[C@H]1O [ATP],KATP,does not have major effects on the DNA-dependent ATPase activity and the KATP (Figure S1)
